Reference: ChEMBL document CHEMBL1134875, “Binding modes of two novel dinucleotide inhibitors of HIV-1 integrase” (Bioorg Med Chem Lett, 2002)

Experiments:
[1] = target: T1, Human immunodeficiency virus type 1 integrase (Human immunodeficiency virus 1, UniProt Q7ZJM1); test: Compound was tested for the inhibition HIV integrase strand transfer activity
[2] = target: T1, Human immunodeficiency virus type 1 integrase; test: Compound was tested for the inhibition HIV integrase 3'-processing activity

T1 sequence (Q7ZJM1 whole entry): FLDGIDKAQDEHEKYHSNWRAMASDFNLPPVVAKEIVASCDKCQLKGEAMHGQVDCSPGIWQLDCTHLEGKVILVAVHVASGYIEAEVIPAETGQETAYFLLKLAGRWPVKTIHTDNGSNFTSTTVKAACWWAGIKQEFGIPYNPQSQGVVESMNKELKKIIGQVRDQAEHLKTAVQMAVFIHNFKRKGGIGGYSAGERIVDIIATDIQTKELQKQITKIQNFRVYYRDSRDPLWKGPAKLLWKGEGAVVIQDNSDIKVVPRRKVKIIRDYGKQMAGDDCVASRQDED

Q: Which results are given for `Nc1ccn([C@H]2C[C@@H](O)[C@@H](COP(=O)(O)O[C@@H]3[C@H](COP(=O)(O)O)OC[C@@H]3n3cnc4c(N)ncnc43)O2)c(=O)n1`?
A: IC50 [1]: 25 µM; IC50 [2]: 19 µM
